We go through ten compounds from ChEMBL document CHEMBL1131929, “New lead compounds for brassinosteroid biosynthesis inhibitors” (1999).

What all share (type): functional
One test deals with Oryza sativa. Briefly: Compound was tested for its activity in rice stem elongation test at a concentration of 1 uM Stem length was measured after 7 days of transplantation.
Test [1] has as its system Lepidium sativum. Briefly: Inhibitory activity on cress growth at a concentration of 5 uM.
Test [2] relates to Lepidium sativum. Description: Inhibitory activity on cress growth at a concentration of 0.5 uM.
In test [3] the test system is Lepidium sativum. Briefly: Inhibitory activity on cress growth at a concentration of 0.05 uM.
Test [4] has as its system Lepidium sativum. Description: Inhibitory activity on cress growth at a concentration of 1 uM.
Test [5] relates to Lepidium sativum. Briefly: Inhibitory activity on cress growth at a concentration of 0.1 uM.

With `OC(c1ccccc1)C(Cc1ccc(Cl)cc1)n1cncn1` (centres undefined), the Rice stem length with Oryza sativa is given as approximately 2.6 cm.

Consider `CC(C)(C)C(O)/C(=C\c1ccc(Cl)cc1)n1cncn1` (centres undefined), for which the Hypocotyl length was 0.5 cm with Lepidium sativum [1]; approximately 0.51 cm in the test with Lepidium sativum [2]; 1 cm in the test with Lepidium sativum [3]; approximately 0.51 cm in the test on Lepidium sativum [4]; approximately 0.52 cm in the test with Lepidium sativum [5]. The compound further came in with a Rice stem length in the test with Oryza sativa of 1.4 cm.

As to `CC(C)(C)C(O)C(CCc1ccccc1)n1cncn1` (centres undefined), in the test with Oryza sativa, the Rice stem length is listed as approximately 2 cm.

`CC(C)(C)C(O)C(Cc1ccc(Cl)cc1)n1cncn1` (centres undefined) showed a Rice stem length in the test with Oryza sativa of 1 cm.

`OC(/C(=C\c1ccc(Cl)cc1)n1cncn1)c1ccccc1` (centres undefined): the Hypocotyl length in the test with Lepidium sativum [2] was 1 cm; in the test on Lepidium sativum [3], approximately 2 cm; in the test on Lepidium sativum [4] it was approximately 0.75 cm; with Lepidium sativum [5], 1.75 cm. The Rice stem length in the test with Oryza sativa amounted to 2.7 cm.

In turn, `CC(C)(C)C(O)/C(=C\c1ccc(Cl)cc1Cl)n1cncn1` (centres undefined) came in with a Rice stem length in the test on Oryza sativa of 1.2 cm.

Turning to `CC(C)(C)C(O)C(CCCOc1ccccc1)n1cncn1` (centres undefined), the Rice stem length in the test with Oryza sativa is listed as 2.1 cm.

With `COc1cccc(/C=C(\C(O)C(C)(C)C)n2cncn2)c1` (centres undefined), in the test with Oryza sativa, the Rice stem length amounted to 2.7 cm.

As for `CC(O)(c1ccccc1)C(Cc1ccc(Cl)cc1)n1cncn1` (centres undefined), the Hypocotyl length was 0.5 cm in the test on Lepidium sativum [1]; 1.25 cm with Lepidium sativum [2]; approximately 2 cm with Lepidium sativum [3]; 0.75 cm in the test with Lepidium sativum [4]; approximately 2.25 cm in the test on Lepidium sativum [5]. The compound further came in with a Rice stem length in the test with Oryza sativa of approximately 2.7 cm.

Consider `CCCCOc1ccc(/C=C(\C(O)C(C)(C)C)n2cncn2)cc1` (centres undefined), for which the Rice stem length in the test with Oryza sativa was found to be 2.4 cm.
